Experimental data taken from patent US20260274814A1, “THIENYL COMPOUNDS FOR THE TREATMENT OF A CENTRAL NERVOUS SYSTEM DISEASE OR DISORDER” (Coreterra Therapeutics, Inc., priority 2023, published 2026).
Where a name gives a salt, the structure may show the parent alone.

System: mice
Assay: Neuropharmacological Assay (SmartCube): automated behavioral signature of compound-treated mice compared with a database of reference drug classes
Assay type: in vivo
Conditions: for MED (minimal effective dose) / minimal effective dose: dose having 45% or more total activity in SmartCube, i.p., if only one dose was tested, that dose is shown; for AG / AN / AP / HL / PS / SH / UK / AD / AX / CE / MS: probability that activity matches this class of agents, 3.0 mg/kg i.p., 15 min before test; for minimal effective dose: Mus musculus, ip, read-out: MED (minimal effective dose)
Source text: Neurosci. 2011 Sep. 9; 5: 103 (doi: 10.3389/fnins.2011.00103) (“Roberds”). As reported in Roberds, because psychiatric diseases generally result from disorders of cell-cell communication or circuitry, intact systems are useful in detecting improvement in disease-relevant endpoints. These endpoints are typically behavioral in nature, often requiring human observation and interpretation. To facilitate testing of multiple compounds for behavioral effects relevant to psychiatric disease, PsychoGenics, Inc. (Tarrytown, NY, “PGI”) developed SmartCube™ an automated system in which behaviors of compound-treated mice are captured by digital video and analyzed with computer algorithms. (D. Brunner et al. Drug Discov. Today 2002, 7:S107-S112). PGI Analytical Systems uses data from SmartCube™ to compare the behavioral signature of a test compound to a database of behavioral signatures obtained using a large set of diverse reference compounds. (The composition of the database as well as validation of the method is further described in Roberds). In this way, the neuropharmacological effects of a test compound can be predicted by similarity to major classes of compounds, such as antipsychotics, anxiolytics and antidepressants.
The SmartCube™ system produces an activity signature indicating the probability that the activity of the test compound at the administered dose matches a given class of neuropharmacological agents. (See, e.g., Roberds, FIGS. 2 and 3). The test compound is simultaneously compared against multiple classes of agents; thus, a separate probability is generated for each behavioral effect measured (e.g., anxiolytic activity, analgesic activity, etc.). In table 2 below, these probabilities are reported for each behavioral effect measured as described in Table 1 below.
Provided compounds were dissolved in a mixture of Pharmasolve™ (N-methyl-2-pyrrolidone), polyethylene glycol and propylene glycol, and were injected i.p. 15 min. before the behavioral test. For each compound, injections were administered at 3 different doses. For each behavioral effect measured, results for the 3.0 mg/kg dose are presented. The potency of many of the compounds in the table was also determined in the SmartCube™ system. Test compounds were routinely examined at dose levels of 0.3, 1, 3 and 10 mg per kg (mpk), although the dose range was increased or decreased, if necessary, to obtain a full dose response curve. A compound's minimal effective dose (MED) is a measure of the compound's potency. The MED was defined as the dose (in mpk) having 45% or more total activity in SmartCube. If only one dose was tested, that dose is shown in the MED column of Table 2 even though the dose is not known to be the MED.

CNC1(C)CCc2ccsc2C1 (single isomer, unassigned) [Compound 49, N, 6-dimethyl-5,7-dihydro-4H-benzothiophen-6-amine hydrochloride]
MED (minimal effective dose) (hydrochloride): 1.0 mpk
AG: ND (^ <4%)
AN: ND (^ <4%)
AP: ND (^ <4%)
HL: ND (^ <4%)
PS: ND (^ <4%)
SH: ND (^ <4%)
UK: ND (^ <4%)
AD (hydrochloride, 3 mg/kg): ++ (≥24%)
AX (hydrochloride, 3 mg/kg): ++ (≥24%)
CE (hydrochloride, 3 mg/kg): + (≥4%)
MS (hydrochloride, 3 mg/kg): + (≥4%)

CNC1(C)CCc2ccsc2C1 (single isomer, unassigned) [Compound 50, N, 6-dimethyl-5,7-dihydro-4H-benzothiophen-6-amine hydrochloride]
MED (minimal effective dose) (hydrochloride): 3.0 mpk
AG: ND (^ <4%)
AN: ND (^ <4%)
AP: ND (^ <4%)
HL: ND (^ <4%)
PS: ND (^ <4%)
SH: ND (^ <4%)
UK: ND (^ <4%)
AD (hydrochloride, 3 mg/kg): +++ (≥49%)
AX (hydrochloride, 3 mg/kg): ND (^ <4%)
CE (hydrochloride, 3 mg/kg): ND (^ <4%)
MS (hydrochloride, 3 mg/kg): ND (^ <4%)

CNC1COc2cscc2C1 (single isomer, unassigned) [Compound 51, N-methyl-3,4-dihydro-2H-thieno[3,4-b]pyran-3-amine hydrochloride]
MED (minimal effective dose) (hydrochloride): >10 mpk
AD: ND (^ <4%)
AG: ND (^ <4%)
AN: ND (^ <4%)
CE: ND (^ <4%)
HL: ND (^ <4%)
MS: ND (^ <4%)
PS: ND (^ <4%)
SH: ND (^ <4%)
UK: + (≥4%)
AP (hydrochloride, 3 mg/kg): ND (^ <4%)
AX (hydrochloride, 3 mg/kg): ND (^ <4%)

CNC1COc2cscc2C1 (single isomer, unassigned) [Compound 52, N-methyl-3,4-dihydro-2H-thieno[3,4-b]pyran-3-amine hydrochloride]
MED (minimal effective dose) (hydrochloride): 3.0 mpk
AD: ND (^ <4%)
AG: ND (^ <4%)
AN: ND (^ <4%)
CE: ND (^ <4%)
HL: ND (^ <4%)
MS: ND (^ <4%)
PS: ND (^ <4%)
SH: ND (^ <4%)
UK: + (≥4%)
AP (hydrochloride, 3 mg/kg): +++ (≥49%)
AX (hydrochloride, 3 mg/kg): ++ (≥24%)

CNC1CCc2csc(Cl)c2C1 (single isomer, unassigned) [Compound 55, 3-chloro-N-methyl-4,5,6,7-tetrahydro-2-benzothiophen-5-amine hydrochloride]
minimal effective dose: 1 mg/kg
AG: ND (^ <4%)
AP: ++ (≥24%)
CE: ND (^ <4%)
HL: ND (^ <4%)
MS: ND (^ <4%)
PS: ND (^ <4%)
SH: ND (^ <4%)
UK: ND (^ <4%)
AD (hydrochloride, 3 mg/kg): ++ (≥24%)
AN (hydrochloride, 3 mg/kg): ND (^ <4%)
AX (hydrochloride, 3 mg/kg): + (≥4%)

CNC1CCc2csc(Cl)c2C1 (single isomer, unassigned) [Compound 56, 3-chloro-N-methyl-4,5,6,7-tetrahydro-2-benzothiophen-5-amine hydrochloride]
MED (minimal effective dose): 1.0 mpk
AG: ND (^ <4%)
AP: ++ (≥24%)
CE: ND (^ <4%)
HL: ND (^ <4%)
MS: ND (^ <4%)
PS: ND (^ <4%)
SH: ND (^ <4%)
UK: ND (^ <4%)
AD (hydrochloride, 3 mg/kg): ND (^ <4%)
AN (hydrochloride, 3 mg/kg): + (≥4%)
AX (hydrochloride, 3 mg/kg): ++ (≥24%)

CNC1CCc2c(csc2Cl)C1 (single isomer, unassigned) [Compound 57, 1-chloro-N-methyl-4,5,6,7-tetrahydro-2-benzothiophen-5-amine hydrochloride]
minimal effective dose: 1 mg/kg
AG: ND (^ <4%)
AN: ND (^ <4%)
AX: ND (^ <4%)
CE: ND (^ <4%)
HL: ND (^ <4%)
PS: ND (^ <4%)
SH: ND (^ <4%)
AD (hydrochloride, 3 mg/kg): ++ (≥24%)
AP (hydrochloride, 3 mg/kg): ++ (≥24%)
MS (hydrochloride, 3 mg/kg): ND (^ <4%)
UK (hydrochloride, 3 mg/kg): + (≥4%)
